Measured values: a melting point compilation (Tetko et al.; mined from patent text by program, amines drawn as free bases though some values may be those of a salt)

SMILES	melting point
Nc1nc(Cn2c(-c3ccc(Oc4cncnc4)cc3)ccc2-c2ccccc2Cl)ccc1NCCO	78 to 82 °C
C[C@@H](Nc1c(-c2c(F)cc(F)cc2F)c(Cl)nc2ncnn12)C(C)(C)C	169 to 171 °C
CN1Cc2c(Br)cc3c(c2C1)NC(=O)C3=O	> 300 °C
CCC(Cl)c1ccc(CCNS(=O)(=O)c2ccc(Cl)cc2)cc1 (configuration not stated)	90 to 91 °C
CCOP(=O)(Cc1cc(C)cc(C)n1)OCC	109 to 112 °C
CC(=O)OC1CCC(n2c(Br)nc3cc(Cl)c(Cl)cc32)C1OC(C)=O (configuration not stated)	140 to 146 °C
O=C(CC(=O)C1CC1)c1ccc2snnc2c1	142 to 144 °C
CCOC(=O)C(=Cc1cc(C(=O)OCC)c(=O)n2ccccc12)C(=O)OCC	149 to 151 °C
O=C(CN1C(=O)C2(COc3cc(Cl)ccc32)c2ccccc21)Nc1ccccc1F (configuration not stated)	70 to 75 °C
CCCCCCCCCCCCC1=C(OC(=O)CC)C(=O)c2ccccc2C1=O	42 to 44 °C
Cn1c(C(F)(F)F)nc2c(OCc3ccccc3)cc(Br)cc21	141 to 142 °C
CCOC(=O)c1csc(/C=C/c2cccc([N+](=O)[O-])c2)n1	151 to 153 °C
CSc1cc(C(=O)c2cc(C(C)(C)C)c(O)c(C(C)(C)C)c2)cn1C	173 to 175 °C
O=C(O)COC1=C(Cc2ccc3c(Cl)cccc3c2)C(=O)CC1	156 to 158 °C
CN1CCN(Cc2nnc(S)n2Cc2cccc(F)c2)CC1	180 °C
O=C(CN1CCC(Cc2ccc(F)cc2)CC1)Nc1ccc2cn[nH]c2c1	135 to 137 °C
COc1ccc2cccc(C(CO)CNC(=O)CF)c2c1 (configuration not stated)	49 to 51 °C
FC(F)(F)CSC1(c2cccc(OCc3ccc4ccccc4c3)c2)CCOCC1	76 to 78 °C
CN1c2ccccc2C(C)(C)C1CC#N (configuration not stated)	74 to 76 °C
Cc1c(C(=O)O)nc2c(=O)[nH]c3cc(C(F)(F)F)ccc3n12	> 250 °C
Cc1cccc(C(=O)c2[nH]c3cc(Cl)ccc3c2NC(N)=O)c1	> 280 °C
CS(=O)(=O)c1ccc(-n2nc(C(F)F)cc2-c2nc3cccc(F)c3s2)cc1	193 to 195 °C
CCOC(=O)Nc1cc(OC2CCCC2)c(Cl)cc1F	92.8 to 97.8 °C
O=C(O)Cc1cccc(OCc2cn(-c3ccc(C(F)(F)F)cn3)nc2C2CCCCC2)c1	129 to 130 °C

SMILES	melting point
COc1cc(Cl)c([N+](=O)[O-])cc1C(=O)NCCC(=O)O	170 to 172 °C
COc1cc2ncc(C#N)c(Nc3ccc(Cl)cc3C)c2cc1OC	227 to 229 °C
O=C(NCc1cccs1)c1ccccc1C(c1ccc(O)cc1)c1ccc(O)cc1	109 to 111 °C
CC(C)[C@H](NC(=O)N(C)Cc1csc(N)n1)C(=O)N[C@@H](Cc1ccccc1)[C@H](O)[C@H](O)[C@H](Cc1ccccc1)NC(=O)OC(C)(C)C	103 to 107 °C
O=C1CCCN1c1nc(-n2ccnc2)c(I)c(C(F)(F)F)n1	195 to 197 °C
Cc1ccc(S(=O)(=O)NCC(O)(Cn2cncn2)c2ccc(F)cc2F)cc1 (configuration not stated)	130 to 136 °C
O=C(Cn1c2c(c(=O)n3nc(-c4ccc(Cl)cc4)cc13)CN(C1CCCCC1)C2=O)c1ccccc1	237 to 239 °C
C#CC1(Oc2ccc(F)cc2[N+](=O)[O-])CCN(C(=O)OCC)CC1	56 to 68 °C
CCOC(=O)Cn1c(=O)c2cc(OC)ccc2n(Cc2ccc(Cl)cc2Cl)c1=O	167 to 168 °C
O=C(Nc1ccccc1-c1nc2cccnc2o1)c1ccccc1	197 to 198 °C
COc1cc2ncc(C#N)c(Nc3ccc(Cl)c4ccccc34)c2cc1OC	> 250 °C
Nc1ncc(C2OC(CO)C(O)C2O)c(Cl)n1 (configuration not stated)	195 to 197 °C
O=C(O)c1ccc(S(=O)(=O)Cl)cc1O	173 °C
CCc1c(Sc2cc(Cl)cc(Cl)c2)c(CC#N)nn1CCO	84 to 85 °C
c1n[nH]nc1C12CCCN(CC1)C2 (configuration not stated)	70 to 75 °C
COC(=O)C(C)N(C(=O)CO)c1c(C)csc1C (configuration not stated)	69 to 70 °C
CCC(CC)Nc1c(NCc2cc(C)cc(C#N)c2)c(=O)c1=O	248 to 250 °C
COc1nc(C)cnc1NS(=O)(=O)c1cccnc1-c1ccc(OCc2ccc(C(=O)O)cc2)cc1	204 to 205 °C
CCOC(=O)C1=C2NC=C(C(N)=O)C(=O)N2C(C)CC1 (configuration not stated)	251 °C
N=C(N)SCc1cccc(CSC(=N)N)c1	216 to 218 °C
c1ccn2c(SCCN3CCNCC3)nnc2c1	104 °C
CN(C)c1cc(-n2nc(N(C)C)n(C)c2=O)c(F)cc1C#N	109 to 110 °C
CNC(=O)ON=C1N=C(c2ccc(Cl)cc2)C(C)(C)S1	147 to 149 °C
C=C(C)C(=O)OCCOc1ccc(N=Nc2ccc(C#N)cc2)cc1C#N	110 °C

SMILES	melting point
Clc1ccc2c(c1)CNc1cc(Cl)ccc1O2	103 to 105 °C
Cc1ncsc1NC(=O)Nc1ccc(-n2nc(C(F)(F)F)cc2C2CC2)cc1	124 to 126 °C
c1ccc(CN(Cc2ccccc2)c2nccc(-c3ccc(-c4ccc(N(c5ccccc5)c5ccccc5)cc4)cc3)n2)cc1	164 to 165 °C
CC1CCCN(C(=O)c2nc(-c3ccccc3)nc3ccccc23)C1 (configuration not stated)	116 °C
CN1CC=C(C2=Nc3cc(Cl)ccc3Oc3ccc(Cl)cc32)CC1	166 to 167 °C
COc1ccc(C=CC(C)=O)cc1OC	78 to 80 °C
CSc1cc(C(F)(F)F)ccc1C#N	80 °C
Nc1cc(Br)cc(Br)c1O	175 to 176 °C
CC1C(=O)N(c2cccc(F)c2)C(=S)N1c1ccc(Oc2ccccc2)cc1 (configuration not stated)	116 °C
CC(=O)Oc1c(C)c(CCC2CC(O)CC(=O)O2)c2c(c1C)CC(C)(C)O2 (configuration not stated)	126 to 128 °C
Cc1nc2sccn2c(=O)c1CCN1CCC(=C2c3ccc(F)cc3CCn3ncnc32)CC1	162 °C
CCOCC(=O)c1nc2c(Cl)cc(F)c(-n3c(=O)cc(C(F)(F)F)n(C)c3=O)c2o1	56 to 58 °C
COc1ccc(C2CCc3cc(OC)ccc3C2CCCn2ccnc2)cc1 (configuration not stated)	67 °C
O=C(Cn1c(-c2cccc(Cl)c2)nc2cccnc21)Nc1ccccn1	165 to 166 °C
CCOCc1nc2c(N)nc3cc(-c4ccc(F)c(F)c4)cnc3c2n1CC(C)(C)O	193 to 195 °C
O=C(O)C(Cl)(Cl)CCCCCCCCCCCCSc1ccccc1	74 °C
C=CCCn1ncc2c(N)c(C(=O)OCC=C)c(C)nc21	64 to 64.5 °C
CC(C)(COC(=O)CCC(=O)O)Oc1ccc2c(c1)CCc1c-2ccc2c1CCC2(C)C	118 to 120 °C
COC(=O)C(=Cc1ccccc1)c1ccc2nc(-c3ccccc3)oc2c1	184 to 185 °C
O=C(O)C1=Cc2cc(Oc3ccc(C(F)(F)F)cc3)cc(Cl)c2OC1C(F)(F)F (configuration not stated)	224 to 226 °C
Cc1nn(-c2cc(I)c(Cl)cc2F)c(=O)n1C(F)F	125 to 127 °C
COC(=O)C(C)Oc1cc(C)ccc1C=O (configuration not stated)	65 to 68 °C
CC(C)(C)OC(=O)N1CCn2c(c(C#N)c(Cl)c2C2CC2)C1	132 to 134 °C
CN1CCC(OC(c2cccc(-c3ccn[nH]3)c2)c2nc3ccccc3s2)CC1 (configuration not stated)	90 °C
